MIC data for 2 compounds are collected here from DBAASP.

Where only a bound is given, the exact number is not on record here.

Common to all, as to assay: ≥ marks a high value that may be exact or a test limit, other limits are often not marked, values filed in µg/mL are converted to µM
In assay [1] the test system is Acinetobacter baumannii ATCC 17978.
Assay [2] deals with Acinetobacter baumannii AYE.
For assay [3], the system named is Escherichia coli LEC001.
Assay [4] concerns Escherichia coli NCTC 12923.
The test system of assay [5] is Klebsiella pneumoniae NCTC 13368.
The test system of assay [6] is Pseudomonas aeruginosa NCTC 13437.
Assay [7] relates to Pseudomonas aeruginosa PAO1.
In assay [8] the test system is Staphylococcus aureus ATCC 9144.
The test system of assay [9] is Staphylococcus aureus USA 300.
In assay [10] the test system is Bacillus subtilis IFO 3336.
Assay [11] deals with Escherichia coli IFO 3301.

The term MIC denotes the smallest concentration in the dilution series that meets the test's criterion for growth inhibition. Regarding `CC[C@H](C)[C@H](NC(=O)CNC(=O)[C@H](CO)NC(=O)[C@@H](N)Cc1c[nH]c2ccccc12)C(=O)N[C@@H](CCCN=C(N)N)C(=O)NCC(=O)N[C@@H](Cc1ccc(O)cc1)C(=O)N[C@@H](CCCCN)C(=O)NCC(=O)NCC(=O)N[C@@H](Cc1ccc(O)cc1)C(=O)N[C@@H](CCCCN)C(=O)NCC(=O)N[C@@H](CC(C)C)C(=O)N[C@@H](Cc1ccccc1)C(=O)N[C@@H](CCCCN)C(=O)N[C@@H](CCC(N)=O)C(=O)N[C@H](C(=O)N[C@@H](CC(N)=O)C(=O)N[C@@H](Cc1ccc(O)cc1)C(N)=O)[C@@H](C)O` [WSGIRGYKGGYKGLFKQTNY], the MIC in [1], in assay [2], in [3], in assay [4], in assay [5] and in [6] was not below 55.1 µM in each case. The MIC in [7] is more than 55.1 µM; in assay [8], not below 55.1 µM; in [9], not below 55.1 µM.
Consider `NCC(=O)N[C@@H](Cc1cnc[nH]1)C(=O)NCC(=O)N[C@@H](Cc1cnc[nH]1)C(=O)NCC(=O)N[C@@H](Cc1cnc[nH]1)C(=O)NCC(=O)N[C@@H](Cc1cnc[nH]1)C(=O)NCC(=O)N[C@@H](Cc1cnc[nH]1)C(=O)O` [GHGHGHGHGH], for which the minimum inhibitory concentration (MIC) in assay [10] and in [11] was not below 506 µM each time.
